{"source": "paper PMC7662523", "about": "“Evaluation of Polyhedral Oligomeric Silsesquioxane Porphyrin Derivatives on Photodynamic Therapy” (Molecules, 2020)", "key": {"[1]": {"assay": "Singlet oxygen quantum yield, indirect method with DMA as 1O2 probe in DMF", "format": "physicochemical", "conditions": "for ΦΔ (1O2 quantum yield): DMA probe, irradiated at 515 nm, relative to TPP (ΦΔ = 0.62), n = 3", "procedure": "The ^1O2 quantum yield (ΦΔ) of the POSSP compounds in dimethyl formamide (DMF) was indirectly determined using 9,10-dimethylanthracene (DMA) as ^1O2 probe. DMA reacts with ^1O2, undergoing a 1,4-cycloaddition that is detected as a decrease in the intensity of the DMA absorption band at 379 nm.\nThe ^1O2 quantum yields (ΦΔ) were determined through an indirect method using dimethylanthracence (DMA) as the singlet oxygen probe. Several solutions containing DMF were air saturated and prepared with DMA (50 μM) and the POSSPs or parent porphyrins (TPP, ATPP, TAPP and compound 6) (5 μM). These solutions were covered with aluminum foil to avoid any premature quenching. Quartz cuvettes (1 cm × 1 cm) were filled with 1 mL of the solution, placed in a spectrofluorophotometer (xenon lamp, Shimadzu RF-5301 PC) and irradiated at 515 nm for 600 s. The absorbance decay of DMA was monitored at 380 nm, which was corrected from light scattering by subtracting the spectra of POSSPs. The ΦΔ was calculated using Equation (2). Φ∆,S = Φ∆,R (mSample/mRerefence) (1−10^−absReference/1−10^−absSample)(2) where Φ∆,S is the singlet oxygen quantum yield of the sample and m is the slope of the plotted data relative to the area of the emission peak against the absorption of the reference."}, "[2]": {"system": "MDA-MB-231 cells", "assay": "In vitro phototoxicity, MTS assay after red light (630 nm) irradiation", "format": "cell-based, human", "conditions": "for phototoxicity (in words): highest concentration evaluated (0.5 µM), 630 nm light; for reduction in cell proliferation: 0.5 µM, 48 h incubation, 630 nm 24.5 mW/cm2 20 min", "procedure": "(§1) The phototoxicities of ATPP, TAPP, compound 6 and POSSPs 1–5 were tested by using the MTS assay. For this study, MDA-MB-231 cells were seeded in a 96-well plate at a density of 5 × 10^3 cells per well in 100 µL of complete media and incubated at 37 °C in 5% CO2 atmosphere for 24 h. After removing the cell culture medium, POSSPs 1–5 at different concentrations (0.01–0.5 µM) were prepared in cell media from a stock solution in DMSO with a final volume of the organic solvent not larger than 1% vol. After 48 h of incubation in the presence of POSSPs, the culture media was removed, and the cells were washed twice with phosphate buffer solution. MDA-MB-231 cells were illuminated with the red light (630 nm) at a fluence rate of 24.5 mW/cm^2 for 20 min. Control experiments were maintained in the same conditions, but in the dark for the same interval of time. After irradiation, the media was replaced by fresh media and the cells were allowed to grow for an additional 24 h. The cyto- and phototoxicities of compound 6 and POSSPs 4 and 5 were also evaluated following the above described protocol, but using concentrations ranging 0.01–100 µM.\nTo quantify the phototoxic or dark toxicity effects of the experiments above described, the treated MDA-MB-231 cells were subjected to cell viability assay using the CellTiter 96® Aqueous solution assay. To perform the assay, the cell media was removed, and the cells were washed once with phosphate buffer solution. Fresh media (100 µL) together with 20 µL of CellTiter 96® was added into each well and incubated for 2–3 h at 37 °C in 5% CO2 atmosphere. Cell viability (%) was calculated as follows: viability = (Asample/Acontrol) × 100%, where Asample and Acontrol denote absorbance values of the sample and control wells measured at 490 nm, respectively. The results are reported as the average ± SD of three experiments. The IC50 values were determined using GraphPad Prism (v8.1.2 for macOS, La Jolla California, CA, USA) fitting the viability data to a sigmoidal curve mathematical model."}, "[3]": {"system": "MDA-MB-231 cells", "assay": "Cell internalization by flow cytometry (percentage of positive cells)", "format": "cell-based, human", "conditions": "0.5 µM, 24 h", "procedure": "Six-well plates were prepared with 1 × 10^5 MDA-MB-231 cells per well in complete RPMI media (2 mL) and incubated at 37 °C in 5% CO2 for 48 h. The media was removed from each well and media solutions of control porphyrin (ATPP) and POSSPs 1–5 (2 mL, 0.5 µM) were added to the wells. The cells were incubated at 37 °C in 5% CO2 atmosphere for 24 h. The cell media was removed from the wells, and the cells were washed with phosphate buffer solution two times. The cells were incubated for 3–5 min in the presence of trypsin (500 µL). Cells were removed and transferred to a centrifuge tube. Media (500 µL) was added to each well to remove any remaining cells and mixed with the previous solution. The cell pellet was obtained after centrifugation (2.5k RPM, 10 min). The supernatant was discarded, and phosphate buffer solution (500 µL) was added to each tube. The cell pellet was mixed and transferred to flow cytometry tubes. The cell internalization of POSSP compounds was measured as the percentage of positive cells using a flow cytometer (BD LSRFortessa)."}, "[4]": {"assay": "Fluorescence quantum yield, comparative method relative to TPP", "format": "physicochemical", "conditions": "air-saturated, excitation 520 nm, relative to TPP in benzene, n = 3", "procedure": "The fluorescence quantum yields (ΦF) were determined to indirectly characterize the efficiency with which the POSSP compounds undergo intersystem crossing (ISC) from the excited state to the triplet state, an essential step in ROS generation. […] In the case of POSSPs 4 and 5, no differences in the ΦF values were observed.\nThe fluorescence quantum yields for air-saturated solutions (ΦF) in THF (POSSPs 1–3) or DMSO (POSSPs 4 and 5) were determined using the comparative method. TPP was used as a reference with a fluorescence quantum yield of 0.12 in benzene. The POSSPs concentrations ranged from 0.1 to 10 µM (THF) for POSSPs 1–3 and from 3 to 15 µM (DMSO) for POSSPs 4 and 5. The excitation wavelength was 520 nm and the excitation and emission slit width were 2 nm. The fluorescence quantum yields were measured according to the comparative method described by Equation (1)."}, "[5]": {"assay": "Partition coefficient (log POW) from n-butanol/water measurement", "format": "physicochemical", "conditions": "n-butanol/water measured at 25 °C, converted with calibration equation", "procedure": "The log POW values of the POSSPs and controls were first measured in an n-butanol/water mixture, and then correlated with corresponding values in n-octanol/water using a calibration curve reported in the literature. Distilled water and butanol were thoroughly mixed for 24 h at 25 °C to achieve solvent saturation in both phases. Then, the porphyrin derivatives were added to the mixture and the phases separated through a separatory funnel. The UV–Vis absorbance of the compounds in water and n-butanol was recorded at 420 nm. logPBW = log[(Ab/Aw)(Vw/Vb)](3) where Ab is the absorbance of n-butanol phase; AW is the absorbance of water phase; VW is the volume of water; and Vb is the volume of n-butanol. The partition coefficient of porphyrin derivatives in n-butanol/water was obtained using Equation (3). The log POW values were calculated using Equation (4). logPOW = −0.54 + 1.55 log(PBW)(4)"}, "[6]": {"system": "MDA-MB-231 cells", "assay": "In vitro cytotoxicity in the absence of light, MTS assay", "format": "cell-based, human", "conditions": "concentrations 0.01–100 µM, Figure S7", "procedure": "as §1, with “MDA-MB-231 cells were illuminated with the red light (630 nm) at a fluence rate of 24.5 mW/cm^2 for 20 min. Control experiments were maintained in the same conditions, but in the dark for the same interval of time. After irradiation, the media was replaced by fresh media and the cells were allowed to grow for an additional 24 h.” left out\nTo quantify the phototoxic or dark toxicity effects of the experiments above described, the treated MDA-MB-231 cells were subjected to cell viability assay using the CellTiter 96® Aqueous solution assay. […] Cell viability (%) was calculated as follows: viability = (Asample/Acontrol) × 100%, where Asample and Acontrol denote absorbance values of the sample and control wells measured at 490 nm, respectively. […] The IC50 values were determined using GraphPad Prism (v8.1.2 for macOS, La Jolla California, CA, USA) fitting the viability data to a sigmoidal curve mathematical model."}, "[7]": {"set-up": "method as in PMID 10911728", "conditions": "in benzene; cited from earlier work"}, "[8]": {"conditions": "reference value used for calculation; cited from earlier work"}}, "data": [{"molecule": "Nc1ccc(-c2c3nc(c(-c4ccccc4)c4ccc([nH]4)c(-c4ccccc4)c4nc(c(-c5ccccc5)c5ccc2[nH]5)C=C4)C=C3)cc1", "note": "[ATPP, 5-(4-aminophenyl)-10,15,20-(triphenyl)porphyrin, reference compound]", "values": [{"measurement": "ΦΔ value (in words)", "setting": "[1]; Table S1", "value": "low ΦΔ value"}, {"measurement": "phototoxicity (in words)", "setting": "[2]", "value": "minimal PDT effect"}, {"measurement": "internalization in cells (in words)", "setting": "[3]", "value": "high internalization"}]}, {"molecule": "NCCC[Si]12O[Si]3(CCCN)O[Si]4(CCCN)O[Si](CCCN)(O1)O[Si]1(CCCN)O[Si](CCCN)(O2)O[Si](CCCN)(O3)O[Si](CCCNC(=O)c2ccc(-c3c5nc(c(-c6ccccc6)c6ccc([nH]6)c(-c6ccccc6)c6nc(c(-c7ccccc7)c7ccc3[nH]7)C=C6)C=C5)cc2)(O4)O1", "note": "[POSSP 4]", "values": [{"measurement": "ΦΔ (1O2 quantum yield)", "setting": "[1]", "value": "0.70 ± 0.01"}, {"measurement": "reduction in cell proliferation", "setting": "[2]", "value": "11 ± 2", "unit": "%"}, {"measurement": "ΦF (fluorescence quantum yield)", "setting": "[4]; in DMSO", "value": "0.15 ± 0.01"}, {"measurement": "log POW (in words)", "setting": "[5]", "value": "Negative log POW values"}]}, {"molecule": "C[N+](C)(C)CCC[Si]12O[Si]3(CCCNC(=O)c4ccc(-c5c6nc(c(-c7ccccc7)c7ccc([nH]7)c(-c7ccccc7)c7nc(c(-c8ccccc8)c8ccc5[nH]8)C=C7)C=C6)cc4)O[Si]4(CCC[N+](C)(C)C)O[Si](CCC[N+](C)(C)C)(O1)O[Si]1(CCC[N+](C)(C)C)O[Si](CCC[N+](C)(C)C)(O2)O[Si](CCC[N+](C)(C)C)(O3)O[Si](CCC[N+](C)(C)C)(O4)O1", "note": "[POSSP 5]", "values": [{"measurement": "cytotoxicity at higher concentrations (in words)", "setting": "[6]", "value": "structural properties of the molecule also play a role in its toxicity"}, {"measurement": "ΦΔ (1O2 quantum yield)", "setting": "[1]", "value": "0.66 ± 0.01"}, {"measurement": "phototoxicity (in words)", "setting": "[2]", "value": "did not show significant phototoxicity"}, {"measurement": "ΦF (fluorescence quantum yield)", "setting": "[4]; in DMSO", "value": "0.10 ± 0.01"}, {"measurement": "log POW (in words)", "setting": "[5]", "value": "Negative log POW values"}]}, {"molecule": "O=C(NCCC[Si]12O[Si]3(c4ccccc4)O[Si]4(c5ccccc5)O[Si](c5ccccc5)(O1)O[Si]1(c5ccccc5)O[Si](c5ccccc5)(O2)O[Si](c2ccccc2)(O3)O[Si](c2ccccc2)(O4)O1)Nc1ccc(-c2c3nc(c(-c4ccccc4)c4ccc([nH]4)c(-c4ccccc4)c4nc(c(-c5ccccc5)c5ccc2[nH]5)C=C4)C=C3)cc1", "note": "[POSSP 2]", "values": [{"measurement": "ΦΔ (1O2 quantum yield)", "setting": "[1]", "value": "0.60 ± 0.02"}, {"measurement": "phototoxicity (in words)", "setting": "[2]", "value": "did not show significant phototoxicity"}, {"measurement": "internalization in cells (in words)", "setting": "[3]", "value": "internalized in a much higher percentage than the other POSSPs"}, {"measurement": "ΦF (fluorescence quantum yield)", "setting": "[4]; in THF", "value": "0.13 ± 0.01"}, {"measurement": "log POW (in words)", "setting": "[5]", "value": "positive values"}]}, {"molecule": "C1=Cc2nc1c(-c1ccccc1)c1nc(c(-c3ccccc3)c3ccc([nH]3)c(-c3ccccc3)c3ccc([nH]3)c2-c2ccccc2)C=C1", "note": "[TPP, 5,10,15,20-(tetraphenyl)porphyrin]", "values": [{"measurement": "fluorescence quantum yield of reference", "setting": "[7]", "value": 0.12}, {"measurement": "ΦΔ (1O2 quantum yield) of reference", "setting": "[8]", "value": 0.62}]}, {"molecule": "CC(C)C[Si]12O[Si]3(CCCNC(=O)Nc4ccc(-c5c6nc(c(-c7ccccc7)c7ccc([nH]7)c(-c7ccccc7)c7nc(c(-c8ccccc8)c8ccc5[nH]8)C=C7)C=C6)cc4)O[Si]4(CC(C)C)O[Si](CC(C)C)(O1)O[Si]1(CC(C)C)O[Si](CC(C)C)(O2)O[Si](CC(C)C)(O3)O[Si](CC(C)C)(O4)O1", "note": "[POSSP 1]", "values": [{"measurement": "ΦΔ (1O2 quantum yield)", "setting": "[1]", "value": "0.82 ± 0.01"}, {"measurement": "reduction in cell proliferation", "setting": "[2]", "value": "43 ± 4", "unit": "%"}, {"measurement": "ΦF (fluorescence quantum yield)", "setting": "[4]; in THF", "value": "0.14 ± 0.01"}, {"measurement": "log POW (in words)", "setting": "[5]", "value": "positive values"}]}]}
